In patent US10336701B2, “Pyridin-2-one derivatives of formula (II) useful as EP3 receptor antagonists” (Janssen Pharmaceutica NV, priority 2017, dated 2019):
pIC50, pKi: −log10 of the molar value. Where two headings read alike, the source gives them in different places.

How the values were obtained:
EP3 receptor [1] = biological target: T1, EP3 receptor (Homo sapiens, UniProt P43115); test: CHO cell cAMP assay (forskolin and sulprostone stimulated, HTRF); type: cell-based; conditions: CHO cells; sulprostone 700 nM (EC80) and FSK 2 μM (EC70), 37° C. for 30 minutes; read-out: CHO_cAMP IC50
T1 construct: purchased Millipore HTS092M
T1 sequence (P43115 1-390): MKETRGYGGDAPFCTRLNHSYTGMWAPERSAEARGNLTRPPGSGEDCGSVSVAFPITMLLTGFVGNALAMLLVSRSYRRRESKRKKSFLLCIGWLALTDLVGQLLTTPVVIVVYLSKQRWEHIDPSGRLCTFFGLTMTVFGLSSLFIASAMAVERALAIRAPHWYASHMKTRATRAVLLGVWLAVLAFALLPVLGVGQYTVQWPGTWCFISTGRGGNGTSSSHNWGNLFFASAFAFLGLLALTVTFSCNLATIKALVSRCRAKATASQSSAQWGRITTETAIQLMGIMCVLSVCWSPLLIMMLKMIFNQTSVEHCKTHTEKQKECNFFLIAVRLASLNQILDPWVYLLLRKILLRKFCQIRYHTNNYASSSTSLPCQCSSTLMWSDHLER
Description: For detection, a homogeneous competitive immunoassay (Time Resolved Fluorescence Energy Transfer (hTR-FRET)) was used.
Cells (6K cells per well) were plated in Poly-D-Lysine coated plates the day before the assay was to be run and were incubated at 37° C. […] At the start of the assay the buffer was removed from the cells and replaced with buffer containing test compound(s). Sulprostone at an EC80 dose (700 nM) and FSK at an EC70 dose (2 μM) were added to initiate the reaction (37° C. for 30 minutes).
FSK increases cAMP production and sulprostone decreases cAMP production produced by FSK. In this assay, EP3 antagonists will increase the cAMP to the level of cAMP generated by FSK alone.
Approximately one hour later the plates were read on an Envision (Perkin Elmer) in HTRF mode.
NSP, NSN, NSsample were converted to nM cAMP using the following equation: […]
IC50 values were determined from a […] (Hill equation) of a single 11-point compound dosing.

EP3 receptor [2] = biological target: T1, EP3 receptor; test: [3H]-PGE2 binding assay (EP3 competition binding)
Description: EP3 competition binding was determined using the following materials and experimental conditions:
Beads=Perkin Elmer RPNQ0001
EP3 membrane=Millipore HTS092M
Membrane concentration=2 μg/well
Beads concentration=0.25 mg/well
[3H]-PGE2=2 nM; DMSO—0.1%
Binding buffer=50 mM Tris, 10 mM MgCl2, 1 mM • EDTA, PH 7.4.
The binding buffer was removed from refrigeration (@ 4° C.) and allowed to warm to room temperature. Test compound (@ stock concentration of […] in DMSO) was serial dilutes (1:3) with 100% DMSO using Echo plate. Diluted test compound (30 nL) was dispensed to the 384-well assay plate (using Echo 550 Labcyte System). To each well was then added assay buffer (5 μl) and each well was spun. Beads were weighed out, dissolved in assay buffer to a concentration of 0.25 mg/15 μl. Original membrane was diluted with assay buffer to a concentration of 2 μg/5 μl. […] To each test well were then added diluted [3H]-PGE2 (5 μl), diluted membrane (5 μl), and dissolved beads (15 μl). The plate was equilibrated at room temperature on a plate shaker for 2 hours and then read with a TOPCOUNT scintillation plate reader. Results were analyzed using a Prism program with non-linear regression, one-site fit for Ki.

SMILES | pIC50 (EP3 receptor [1]) | pKi (EP3 receptor [2]; read-out: [3H]-PGE2 Binding Ki) | pKi (EP3 receptor [2]; [3H]-PGE2 Binding Ki)
O=c1[nH]c(-c2ccc3ccccc3c2)ccc1C1CCc2n[nH]cc2C1 (stereo not shown) [compound 195, 6-(naphthalen-2-yl)-3-(4,5,6,7-tetrahydro-2H-indazol-5-yl)pyridin-2(1H)-one] | 6.54 | 7.38 | 
CCn1ncc2c(F)cc(-c3ccc(C(CC)(CC)c4ccon4)c(=O)[nH]3)cc21 [Compound #29, 6-(1-ethyl-4-fluoro-1H-indazol-6-yl)-3-(3-(isoxazol-3-yl)pentan-3-yl)pyridin-2(1H)-one] | 8.05 | 8.52 | 
NC(=O)C(C1=CCCCC1)c1ccc(-c2ccc3ccccc3c2)[nH]c1=O (stereo not shown) [compound 226, 2-(cyclohex-1-en-1-yl)-2-(6-(naphthalen-2-yl)-2-oxo-1,2-dihydropyridin-3-yl)acetamide] | 5.30 | 6.73 | 
CCn1ncc2c(F)cc(-c3ccc(C4=CCN(S(=O)(=O)C(C)C)C4)c(=O)[nH]3)cc21 [compound 297, 6-(1-ethyl-4-fluoro-1H-indazol-6-yl)-3-(1-(isopropylsulfonyl)-2,5-dihydro-1H-pyrrol-3-yl)pyridin-2(1H)-one] | 6.71 | 8.10 | 
CC(C)C(NC(N)=O)c1ccc(-c2ccc3cccc(F)c3c2)[nH]c1=O (stereo not shown) [compound 267, 1-(1-(6-(8-fluoronaphthalen-2-yl)-2-oxo-1,2-dihydropyridin-3-yl)-2-methylpropyl)urea] | 7.85 | 8.22 | 
CCn1ncc2c(F)cc(-c3ccc(C(CC4CCC(=O)N4)C(C)C)c(=O)[nH]3)cc21 (stereo not shown) [compound 151, 6-(1-ethyl-4-fluoro-1H-indazol-6-yl)-3-(3-methyl-1-(5-oxopyrrolidin-2-yl)butan-2-yl)pyridin-2(1H)-one] |  | 7.96 | 
CCn1ncc2c(F)cc(-c3ccc(C4CC5CCC(C4)N5C(=O)NC(C)C)c(=O)[nH]3)cc21 (stereo not shown) [compound 208, 3-(6-(1-ethyl-4-fluoro-1H-indazol-6-yl)-2-oxo-1,2-dihydropyridin-3-yl)-N-isopropyl-8-azabicyclo[3.2.1]octane-8-carboxamide] |  |  | 6.80
CCn1ncc2c(F)cc(-c3ccc(C(CC)(CC)c4nnc(N(C)C)o4)c(=O)[nH]3)cc21 [Compound #57, 3-(3-(5-(dimethylamino)-1,3,4-oxadiazol-2-yl)pentan-3-yl)-6-(1-ethyl-4-fluoro-1H-indazol-6-yl)pyridin-2(1H)-one] |  | 8.22 | 
CCn1ncc2c(F)cc(-c3ccc(C(CC)(CC)c4nnc(C(F)(F)F)o4)c(=O)[nH]3)cc21 [Compound #45, 6-(1-ethyl-4-fluoro-1H-indazol-6-yl)-3-(3-(5-(trifluoromethyl)-1,3,4-oxadiazol-2-yl)pentan-3-yl)py-ridine-2(1H)-one] |  | 7.23 | 
CCn1ncc2c(F)cc(-c3ccc(C(CC)(CC)c4nnc(N(C)C)s4)c(=O)[nH]3)cc21 [Compound #48, 3-(3-(5-(dimethylamino)-1,3,4-thiadiazol-2-yl)pentan-3-yl)-6-(1-ethyl-4-fluoro-1H-indazol-6-yl)pyridin-2(1H)-one] |  | 8.70 | 

Now from value to compound, other results behind:

pIC50 (EP3 receptor [1]) | pKi (EP3 receptor [2]; read-out: [3H]-PGE2 Binding Ki) | SMILES | pKi (EP3 receptor [2]; [3H]-PGE2 Binding Ki)
8.10 | 8.40 | O=C1NC(=O)/C(=C/C(c2ccc(-c3ccc4cccc(F)c4c3)[nH]c2=O)C2CCCCC2)O1 (stereo not shown) [compound 134, (Z)-5-(2-cyclohexyl-2-(6-(8-fluoronaphthalen-2-yl)-2-oxo-1,2-dihydropyridin-3-yl)ethylidene)oxazolidine-2,4-dione] | 
< 4.70 | 5.74 | CN(C)C1=NC(C)(c2ccc(-c3ccc4ccccc4c3)[nH]c2=O)CN1 (stereo not shown) [compound 289, 3-[2-(dimethylamino)-4-methyl-4,5-dihydro-1H-imidazol-4-yl]-6-(naphthalen-2-yl)-1,2-dihydropyridin-2-one] | 
6.26 | 6.97 | CCn1ncc2c(F)cc(-c3ccc(C(c4noc(=O)[nH]4)C(C)C)c(=O)[nH]3)cc21 (stereo not shown) [Compound #277, 3-(1-(6-(1-ethyl-4-fluoro-1H-indazol-6-yl)-2-oxo-1,2-dihydropyridin-3-yl)-2-methylpropyl)-1,2,4-oxadiazol-5(4H)-one] | 
6.24 | 6.79 | CC(C)C(CC(=O)NS(=O)(=O)c1cc(Cl)c(Cl)s1)c1ccc(-c2ccc3cccc(F)c3c2)[nH]c1=O (stereo not shown) [compound 256, N-(4,5-dichlorothiophen-2-ylsulfonyl)-3-(6-(8-fluoronaphthalen-2-yl)-2-oxo-1,2-dihydropyridin-3-yl)-4-methylpentanamide] | 
7.59 | 8.15 | CC(=C1OC(=O)NC1=O)C(c1ccc(-c2ccc3cccc(F)c3c2)[nH]c1=O)C(C)C (stereo not shown) [compound 84] | 
< 4.70 |  | CCn1ncc2cc(C)c(-c3ccc(C(/C=C4/OC(=O)NC4=O)(CC)CC)c(=O)[nH]3)cc21 [compound 43, 5-(2-ethyl-2-(6-(1-ethyl-5-methyl-1H-indazol-6-yl)-2-oxo-1,2-dihydropyridin-3-yl)butylidene)oxazolidine-2,4-dione] | 
4.75 |  | CCn1nc(C)c2ccc(-c3ccc(C(C=C4OC(=O)NC4=O)(CC)CC)c(=O)[nH]3)cc21 [compound 34, 5-(2-ethyl-2-(6-(1-ethyl-3-methyl-1H-indazol-6-yl)-2-oxo-1,2-dihydropyridin-3-yl)butylidene)oxazo-lidine-2,4-dione] | 
 | 8.22 | CCc1nnc(C(CC)(CC)c2ccc(-c3cc(F)c4cnn(CC)c4c3)[nH]c2=O)o1 [Compound #53, 3-(3-(5-ethyl-1,3,4-oxadiazol-2-yl)pentan-3-yl)-6-(1-ethyl-4-fluoro-1H-indazol-6-yl)pyridin-2(1H)-one] | 
 | < 5.00 | CCN1CCOc2c(F)cc(-c3ccc(C(/C=C4\CCNC4=O)(CC)CC)c(=O)[nH]3)cc21 [compound 25, (E)-6-(4-ethyl-8-fluoro-3,4-dihydro-2H-benzo[b][1,4]oxazin-6-yl)-3-(3-((2-oxopyrrolidin-3-ylidene)methyl)pentan-3-yl)pyridin-2(1H)-one] | 
 | 5.97 | CCC(CC)(c1ncc[nH]1)c1ccc(-c2ccc3cc(F)cc(F)c3c2)[nH]c1=O [compound 50, 3-(3-(1H-imidazol-2-yl)pentan-3-yl)-6-(6,8-difluoronaphthalen-2-yl)pyridin-2(1H)-one] | 
 | 7.15 | CC(C)C(/C=C1/OC(=O)NC1=O)c1ccc(-c2ccc3cccc(C#N)c3c2)[nH]c1=O (stereo not shown) [compound 310, (E)-7-(5-(1-(2,4-dioxooxazolidin-5-ylidene)-3-methylbutan-2-yl)-6-oxo-1,6-dihydropyridin-2-yl)-1-naphthonitrile] | 
 | 6.34 | CCn1ncc2c(F)cc(-c3[nH]c(=O)c(C(CC)(CC)CC4=CCNC4=O)cc3F)cc21 [compound 46, 6-(1-ethyl-4-fluoro-1H-indazol-6-yl)-5-fluoro-3-(3-((2-oxo-2,5-dihydro-1H-pyrrol-3-yl)methyl)pentan-3-yl)pyridin-2(1H)-one] | 
 | 6.53 | CCC(/C=C1/OC(=O)NC1=O)(CC)c1ccc(-c2ccc3cc(F)cc(F)c3c2)[nH]c1=O [compound 32, (E)-5-(2-(6-(6,8-difluoronaphthalen-2-yl)-2-oxo-1,2-dihydropyridin-3-yl)-2-ethylbutylidene)oxazolidine-2,4-dione] | 
 | 8.15 | CCn1ncc2c(F)cc(-c3ccc(C(CC)(CC)CC4CCCNC4=O)c(=O)[nH]3)cc21 (stereo not shown) [compound 58, 6-(1-ethyl-4-fluoro-1H-indazol-6-yl)-3-(3-((2-oxopiperidin-3-yl)methyl)pentan-3-yl)pyridin-2(1H)-one] | 
